Reference: US5567716A, “Trans and cis traumatic acid salts having cicatrizant activity associated to bacteriostatic, antiviral, antibiotic or antifungal activity” (priority 1992, dated 1996)
Like-named read-outs stand apart in the source and are kept apart here.

Experiments:
E.coli ATCC 35218 = assay: microbe, parasite or virus in culture; format: cell-based; details: for MINIMAL BACTERIAL CONCENTRATION: Table 2.b)3, test concentrations given in μg/ml
Method: (§1) 1. Culture Medium: Tryprone Soy Broth (TBS) - Biogenetics
(§2) Microbic standard strains from American Type Culture Collection (ATCC) were used, chosen among aerobic Gram positive and negative as follows:
(§3) The broths culture of the different species are prepared growing the standard strain (kept in Tryptic Soy Agar (TSA) slent at 5° C.) in Tryptone Soy Broth (TSB) for 12 hours at 37° C. 10 ml are then taken up from each culture, centrifugated for 3 times at 3500 PM washing each time the sediment using 10 ml of sterile saline solution. The sediment is resuspended in the saline solution until obtainment of a turbidity corresponding to the Mc Farland standard solution (the suspension title must be […] UFC/ml).
(§4) The compounds, dissolved as stock solution, were added to test tubes containing 5 ml TBS in order to obtain the desired Final concentration 10000; 5000; 1000; 200; 40; 2; 0.4; 0.05 μg/ml (culture medium maximal dilution=1/10).
(§5) 50 μl of bacterial suspension are added to the tube containing the compounds to be tested and incubated at 37° C.: the densitometric determination is made in comparison with Mc Farland standard solution 24 and 48 hours later.
(§6) After the incubation time the suspensions ape gently agitated; 50 μl of each suspension are inoculated in tubes containing […] of TSB and incubated at 37° C.; the densitometric determination is made 48 hours later.
(§7) BMC is defined by comparison between the two densitometric evaluation.

[1] = for organic solvent solubility: dmso
St.aureus ATCC 65380 = assay: Evaluation of bacteriostatic minimal concentration (BMC); format: cell-based; details: for MINIMAL BACTERIAL CONCENTRATION: Table 2.b)2, test concentrations given in μg/ml
Method: as §1, §2, §3, §4, §5, §6, §7

Ps.aeruginosa ATCC 35422 = assay: as above; format: cell-based; details: for MINIMAL BACTERIAL CONCENTRATION: Table 2.b)1, test concentrations given in μg/ml
Method: as §1, §2, §3, §4, §5, §6, §7

B.subtilis ATCC 6633 = assay: as above; format: cell-based; details: test concentrations given in μg/ml; for MINIMAL BACTERIAL CONCENTRATION: Table 2.b)5
Method: as §1, §2, §3, §4, §5, §6, §7

C.albicans ATCC 10231 = assay: as above; format: cell-based; details: test concentrations given in μg/ml; for MINIMAL BACTERIAL CONCENTRATION: Table 2.b)6
Method: as §1, §2, §3, §4, §5, §6, §7

[2] = tested on: St.epidermidis ATCC 14990; assay: as above; format: cell-based; details: test concentrations given in μg/ml; for MINIMAL BACTERIAL CONCENTRATION: Table 2.b)4
Method: as §1, §2, §3, §4, §5, §6, §7

[3] = Physical chemical characteristics: solubility in water and organic solvents
Balb/C 3T3 fibroblasts = assay: Cell growth of Balb/C 3T3 fibroblasts, crystal violet colorimetry (1.1b); format: cell-based, Mouse; details: for promotion of cell growth: 10^-5 to 10^-7 M, lincomycin > rolitetracycline > erythromycin salt; for promotion of cell growth / cell growth effect compared to traumatic acid: in words; for cell growth t2/t1: 48 h/24 h, control 76.776
Method: Mouse Balb/C 3T3 fibroblasts were grown in DMEM medium supplemented with penicillin (100 units/ml) and streptomycin (0.1 mg/ml). For experimental purposes, cells are routinely inoculated in […] diameter culture dishes (5000cells/dish) and cultured overnight.
The compounds to be tested are solubilized in DMEM+10%FCS and DMSO to obtain the final concentration of 10^-5 M, 10^-6 M e 10^-7 M in 0.05% DMSO.
The cells number is measured 4, 24 and 48 hours after seeding. The cell growth is evaluated as t2/t1 ratio (%).

[4] = 4 h (t0), 10^-5M, control 0.300
[5] = 4 h (t0), 10^-6M, control 0.300
[6] = 4 h (t0), 10^-7M, control 0.300
[7] = 24 h (t1), 10^-5M, control 0.481
[8] = 24 h (t1), 10^-6M, control 0.481
[9] = 24 h (t1), 10^-7M, control 0.481
[10] = 48 h (t2), 10^-5M, control 0.849
[11] = 48 h (t2), 10^-6M, control 0.849
[12] = 48 h (t2), 10^-7M, control 0.849

In the case of `NC(=NCCCCCCN=C(N)N=C(N)Nc1ccc(Cl)cc1)N=C(N)Nc1ccc(Cl)cc1.O=C(O)/C=C/CCCCCCCCC(=O)O` [Chlorhexidine Traumatate, chlorhexidine trans-traumatate], the “MINIMAL BACTERIAL CONCENTRATION” value (E.coli ATCC 35218) is reported as 8.00, the organic solvent solubility [1] is reported as greater than 10000 µg/mL and the “MINIMAL BACTERIAL CONCENTRATION” value (St.aureus ATCC 65380) is reported as 8.00. The “MINIMAL BACTERIAL CONCENTRATION” value (Ps.aeruginosa ATCC 35422) was 40.00, the “MINIMAL BACTERIAL CONCENTRATION” value (B.subtilis ATCC 6633) was 2.00 and the “MINIMAL BACTERIAL CONCENTRATION” value (C.albicans ATCC 10231) was 2.00. For the same molecule, the “MINIMAL BACTERIAL CONCENTRATION” value [2] was 2.00.
With `CC[C@H]1OC(=O)[C@H](C)[C@@H](O[C@H]2C[C@@](C)(OC)[C@@H](O)[C@H](C)O2)[C@H](C)[C@@H](O[C@@H]2O[C@H](C)C[C@H](N(C)C)[C@H]2O)[C@](C)(O)C[C@@H](C)C(=O)[C@H](C)[C@@H](O)[C@]1(C)O.CC[C@H]1OC(=O)[C@H](C)[C@@H](O[C@H]2C[C@@](C)(OC)[C@@H](O)[C@H](C)O2)[C@H](C)[C@@H](O[C@@H]2O[C@H](C)C[C@H](N(C)C)[C@H]2O)[C@](C)(O)C[C@@H](C)C(=O)[C@H](C)[C@@H](O)[C@]1(C)O.O=C(O)/C=C/CCCCCCCCC(=O)O` [Erythromycin Traumatate, Erythromycin trans-traumatate] the “MINIMAL BACTERIAL CONCENTRATION” value (E.coli ATCC 35218) was 10,000.00, the “MINIMAL BACTERIAL CONCENTRATION” value (St.aureus ATCC 65380) was 10,000.00 and the “MINIMAL BACTERIAL CONCENTRATION” value (Ps.aeruginosa ATCC 35422) was 10,000.00. The “MINIMAL BACTERIAL CONCENTRATION” value (B.subtilis ATCC 6633) was 1,000.00, the “MINIMAL BACTERIAL CONCENTRATION” value (C.albicans ATCC 10231) was > 10,000 and the organic solvent solubility ([3]; in DMSO) was greater than 10000 µg/mL. For the same molecule, the organic solvent solubility ([3]; in ethanol) was greater than 10000 µg/mL, the water solubility ([3]; water, in words) was “poorly soluble” and the “promotion of cell growth” value (Balb/C 3T3 fibroblasts) was “capable to promote cell growth at all the tested doses”. It also gave a Cell density (Balb/C 3T3 fibroblasts; [4]) of 0.370, a Cell density (Balb/C 3T3 fibroblasts; [5]) of 0.352 and a Cell density (Balb/C 3T3 fibroblasts; [6]) of 0.344. The Cell density (Balb/C 3T3 fibroblasts; [7]) was 0.365, the Cell density (Balb/C 3T3 fibroblasts; [8]) was 0.369 and the Cell density (Balb/C 3T3 fibroblasts; [9]) was 0.368. The Cell density (Balb/C 3T3 fibroblasts; [10]) was 0.919, the Cell density (Balb/C 3T3 fibroblasts; [11]) was 0.921 and the Cell density (Balb/C 3T3 fibroblasts; [12]) was 1.074. The “cell growth t2/t1” value (Balb/C 3T3 fibroblasts; 10^-5M) was 159.16%, the “cell growth t2/t1” value (Balb/C 3T3 fibroblasts; 10^-6M) was 148.64% and the “cell growth t2/t1” value (Balb/C 3T3 fibroblasts; 10^-7M) was 196.81%. For the same molecule, the “cell growth effect compared to traumatic acid” value (Balb/C 3T3 fibroblasts) was “more consistent if compared to the corresponding one of the parent compound traumatic acid”.
With `NC[C@H]1O[C@H](O[C@H]2[C@H](O)[C@@H](O[C@H]3O[C@H](CO)[C@@H](O)[C@H](N)[C@H]3O)[C@H](N)C[C@@H]2N)[C@H](N)C[C@@H]1O.NC[C@H]1O[C@H](O[C@H]2[C@H](O)[C@@H](O[C@H]3O[C@H](CO)[C@@H](O)[C@H](N)[C@H]3O)[C@H](N)C[C@@H]2N)[C@H](N)C[C@@H]1O.O=C(O)/C=C/CCCCCCCCC(=O)O.O=C(O)/C=C/CCCCCCCCC(=O)O.O=C(O)/C=C/CCCCCCCCC(=O)O.O=C(O)/C=C/CCCCCCCCC(=O)O.O=C(O)/C=C/CCCCCCCCC(=O)O` [Tobramycin Traumatate, tobramycin trans-traumatate] the “MINIMAL BACTERIAL CONCENTRATION” value (E.coli ATCC 35218) was 200.00, the organic solvent solubility [1] was greater than 10000 µg/mL and the solubility in water ([1]; water) was greater than 10000 µg/mL. For the same molecule, the “MINIMAL BACTERIAL CONCENTRATION” value (St.aureus ATCC 65380) was 1,000.00 and the “MINIMAL BACTERIAL CONCENTRATION” value (Ps.aeruginosa ATCC 35422) was 5,000.
`O=C([O-])/C=C/CCCCCCCCC(=O)[O-].[Zn+2]` [Zinc Traumatate, zinc trans-traumatate] showed an MIC (E.coli ATCC 35218; Escherichia coli, ATCC35218, read-out: MINIMAL BACTERIAL CONCENTRATION) greater than 10000 µg/mL, an MIC (St.aureus ATCC 65380; Staphylococcus aureus, ATCC65380, read-out: MINIMAL BACTERIAL CONCENTRATION) greater than 10000 µg/mL and an MIC (Ps.aeruginosa ATCC 35422; Pseudomonas aeruginosa, ATCC35422, read-out: MINIMAL BACTERIAL CONCENTRATION) greater than 10000 µg/mL. For the same molecule, the MIC (B.subtilis ATCC 6633; Bacillus subtilis, ATCC6633; Table 2.b)5, read-out: MINIMAL BACTERIAL CONCENTRATION) was greater than 10000 µg/mL, the MIC (C.albicans ATCC 10231; Candida albicans, ATCC10231; Table 2.b)6, read-out: MINIMAL BACTERIAL CONCENTRATION) was greater than 10000 µg/mL and the MIC ([2]; Staphylococcus epidermidis, ATCC14990; Table 2.b)4, read-out: MINIMAL BACTERIAL CONCENTRATION) was greater than 10000 µg/mL. The solubility ([3]; 5% nh3) was greater than 10000 µg/mL, the organic solvent solubility ([3]; in DMSO, in words) was “poorly soluble” and the organic solvent solubility ([3]; in ethanol, in words) was “poorly soluble”. For the same molecule, the water solubility ([3]; water, in words) was “poorly soluble”.
In the case of “rolitetracycline trans-traumatate [Rolitetracycline Traumatate]”, the “MINIMAL BACTERIAL CONCENTRATION” value (E.coli ATCC 35218) is reported as 1,000.00, the “MINIMAL BACTERIAL CONCENTRATION” value (St.aureus ATCC 65380) is reported as 5,000.00 and the “MINIMAL BACTERIAL CONCENTRATION” value (Ps.aeruginosa ATCC 35422) is reported as 10,000.00. The “MINIMAL BACTERIAL CONCENTRATION” value (B.subtilis ATCC 6633) was 40.00, the “MINIMAL BACTERIAL CONCENTRATION” value (C.albicans ATCC 10231) was 1,000.00 and the “MINIMAL BACTERIAL CONCENTRATION” value [2] was 200.00. For the same molecule, the organic solvent solubility ([3]; in DMSO) was greater than 10000 µg/mL, the solubility in water ([3]; water) was greater than 10000 µg/mL and the “promotion of cell growth” value (Balb/C 3T3 fibroblasts) was “capable to promote cell growth at all the tested doses”. The Cell density (Balb/C 3T3 fibroblasts; [4]) was 0.46, the Cell density (Balb/C 3T3 fibroblasts; [5]) was 0.475 and the Cell density (Balb/C 3T3 fibroblasts; [6]) was 0.482. It also gave a Cell density (Balb/C 3T3 fibroblasts; [7]) of 0.255, a Cell density (Balb/C 3T3 fibroblasts; [8]) of 0.356 and a Cell density (Balb/C 3T3 fibroblasts; [9]) of 0.287. The Cell density (Balb/C 3T3 fibroblasts; [10]) was 0.678, the Cell density (Balb/C 3T3 fibroblasts; [11]) was 0.660 and the Cell density (Balb/C 3T3 fibroblasts; [12]) was 0.828. The “cell growth t2/t1” value (Balb/C 3T3 fibroblasts; 10^-5M) was 166.39%, the “cell growth t2/t1” value (Balb/C 3T3 fibroblasts; 10^-6M) was 186.69% and the “cell growth t2/t1” value (Balb/C 3T3 fibroblasts; 10^-7M) was 185.44%. The “cell growth effect compared to traumatic acid” value (Balb/C 3T3 fibroblasts) was “more consistent if compared to the corresponding one of the parent compound traumatic acid”.
In the case of “silver trans-traumatate [Silver Traumatate]”, the “MINIMAL BACTERIAL CONCENTRATION” value (E.coli ATCC 35218) is reported as 40.00, the “solubility in 5% NH3” value ([1]; 5% nh3) is reported as greater than 10000 µg/mL and the “MINIMAL BACTERIAL CONCENTRATION” value (St.aureus ATCC 65380) is reported as 40.00. The “MINIMAL BACTERIAL CONCENTRATION” value (Ps.aeruginosa ATCC 35422) was 40.00, the “MINIMAL BACTERIAL CONCENTRATION” value (B.subtilis ATCC 6633) was 200.00 and the “MINIMAL BACTERIAL CONCENTRATION” value (C.albicans ATCC 10231) was > 10,000. For the same molecule, the “MINIMAL BACTERIAL CONCENTRATION” value [2] was 200.00.
